Assay results published in patent publication US9920074B2 (ACEA BIOSCIENCES INC., priority 2013, dated 2018).

Key:
Type in all cases: cell-based
[1] = target: T1, Btk (Tyr223) phosphorylation in Ramos cells (Homo sapiens, UniProt Q06187); assay: Btk Tyr223 phosphorylation inhibition, western blotting assay (Example 72); conditions: Btk Tyr223 phosphorylation, 45 min, 12 μg/mL IgM, read-out: BTK Inhibition
T1 construct: endogenous in cells; host or cells: Ramos cells (ATCC)
Method: Ramos cell line was obtained from the American Type Culture Collection and was maintained at 37° C. with 5% CO2, in media supplemented with 10% fetal bovine serum, penicillin (100 units/mL) and streptomycin (100 μg/mL), Goat F(ab′)2 Anti-Human IgM-UNLB was obtained from SouthernBiotech.
(§1) Ramos cells were treated with compounds at indicated doses for 45 min at room temperature, followed by stimulation of 12 μg/mL of IgM for 30 min, and then lysed. Western blots were performed on the cell lysate using Phospho-Btk (Tyr223), Phospho-Btk (Tyr551), Btk, Phospho-PLCγ2 (Tyr1217), PLCγ2, Phospho-p44/42 MAPK (Erk1/2) (Thr202/Tyr204) and p44/42 MAPK (Erk1/2) antibodies (Cell Signaling Technology). The density of blotting band was acquired using ImageJ software, and the IC50 of Btk (Tyr223) phosphorylation was fitted using a non-linear regression model by GraphPad Prism version 4.0.

[2] = target: T1, Btk (Tyr223) phosphorylation in Ramos cells; assay: Western blotting assay for Btk (Example 73); conditions: 45 min, 6 μg/mL anti-IgM, read-out: Btk Inhibition
Method: (§2) All cell lines were obtained from the American Type Culture Collection and were maintained at 37° C. with 5% CO2. Ramos cell line was maintained in media supplemented with 10% fetal bovine serum, penicillin (100 units/mL) and streptomycin (100 μg/mL). NK-92 cell line was maintained in media supplemented with 10% fetal bovine serum and 10% horse serum, penicillin (100 units/mL) and streptomycin (100 μg/mL), IL-2 10 ng/mL. Goat F(ab′)2 Anti-Human IgM-UNLB was obtained from SouthernBiotech. IL-2 was obtained from Peprotech.
as §1, with “of 6” for “of 12”, “of anti-IgM” for “of IgM”, “GraphPad Prism.” for “GraphPad Prism version 4.0.”

[3] = test system: Stat5 phosphorylation in NK-92 cells; assay: Western blotting assay for Stat5; conditions: NK92, 1 hour, IL-2 stimulation, read-out: Stat5 inhibition
Method: as §2
NK-92 cells were treated with compounds at the dosed indicated for 1 hour in incubator, followed by the IL-2 stimulation for 15 minutes. Cells were then collected and lysed to prepare the cellular extraction. Western blots were performed on cell lysate using Phospho-Jak3, Jak3, Phospho-Stat5, Stat5 antibodies (Cell Signaling Technology). The intensity of blotting band was acquired using Image Lab (Bio-Rad) software, and the IC50 of target was generated with GraphPad Prism.

T1 sequence (Q06187 whole entry): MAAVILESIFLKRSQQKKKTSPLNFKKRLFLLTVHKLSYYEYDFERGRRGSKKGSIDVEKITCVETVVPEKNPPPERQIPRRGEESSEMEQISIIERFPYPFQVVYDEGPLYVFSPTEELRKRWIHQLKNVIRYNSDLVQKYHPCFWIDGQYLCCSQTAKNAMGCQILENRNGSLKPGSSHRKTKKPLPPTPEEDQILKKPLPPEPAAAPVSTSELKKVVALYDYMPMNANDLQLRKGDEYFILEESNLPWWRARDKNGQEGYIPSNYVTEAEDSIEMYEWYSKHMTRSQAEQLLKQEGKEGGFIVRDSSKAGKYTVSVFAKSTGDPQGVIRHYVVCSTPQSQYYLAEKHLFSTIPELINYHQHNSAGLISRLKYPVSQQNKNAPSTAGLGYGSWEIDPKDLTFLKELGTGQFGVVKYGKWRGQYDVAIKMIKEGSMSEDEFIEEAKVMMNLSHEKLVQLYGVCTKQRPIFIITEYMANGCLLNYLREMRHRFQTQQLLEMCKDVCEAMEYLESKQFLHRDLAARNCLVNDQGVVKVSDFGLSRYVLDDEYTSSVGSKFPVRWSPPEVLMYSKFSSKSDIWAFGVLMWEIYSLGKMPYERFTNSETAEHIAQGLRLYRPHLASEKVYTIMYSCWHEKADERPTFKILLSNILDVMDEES

| Structure (SMILES) | IC50 [1] [µM] | IC50 [2] [µM] | IC50 [3] [µM] |
| --- | --- | --- | --- |
| C=CC(=O)Nc1cccc(Oc2nc(Nc3ccc(N4CCN(CCF)CC4)c(F)c3)ncc2OC)c1 [Compound I-3, N-(3-(2-(3-fluoro-4-(4-(2-fluoroethyl)piperazin-1-yl)phenylamino)-5-methoxypyrimidin-4-yloxy)phenyl)acrylamide] | < 0.01 | ≤ 0.01 | 0.2 to 0.4 |
| C=CC(=O)Nc1cccc(Nc2nc(Nc3ccc(N4CCN(CCF)CC4)c(F)c3)ncc2F)c1 [Compound I-4, N-(3-((5-fluoro-2-((3-fluoro-4-(4-(2-fluoroethyl)piperazin-1yl)phenyl)amino)pyrimidin-4-yl)amino)phenyl)acrylamide] | < 0.01 | ≤ 0.01 | 0.2 to 0.4 |
| C=CC(=O)Nc1cccc(Nc2nc(Nc3ccc(N4CCN(CCF)CC4)cc3)ncc2OC)c1 [Compound I-5] | < 0.01 | ≤ 0.01 | 0.2 to 0.4 |
| C=CC(=O)Nc1ccccc1Nc1nc(Nc2ccc(N3CCN(CCF)CC3)cc2)ncc1F [Compound I-6, N-(2-(5-fluoro-2-(4-(4-(2-fluoroethyl)piperazin-1-yl)phenylamino)pyrimidin-4-ylamino)phenyl)acrylamide] | < 0.01 | ≤ 0.01 | 0.2 to 0.4 |
| C=CC(=O)Nc1cccc(Nc2nc(Nc3ccc(N4CCN(CCF)CC4)c(F)c3)ncc2OC)c1 [Compound I-7] | 0.01 to 0.1 | 0.01 to 0.1 | ≥ 0.4 |
| C=CC(=O)Nc1cccc(Oc2nc(Nc3ccc(N4CCN(CCF)CC4)c(F)c3)ncc2F)c1 [Compound I-8] | < 0.01 | – | – |
| C=CC(=O)Nc1cccc(Oc2nc(Nc3ccc(N4CCN(CCF)CC4)cc3)ncc2OC)c1 [Compound I-9] | < 0.01 | ≤ 0.01 | 0.2 to 0.4 |
| C=CC(=O)Nc1cccc(Nc2nc(Nc3ccc(OCCOC)cc3)nc3[nH]ccc23)c1 [Compound I-11, N-(3-(2-(4-(2-methoxyethoxy)phenylamino)-7H-pyrrolo[2,3-d]pyrimidin-4-ylamino)phenyl)acrylamide] | 0.01 to 0.1 | 0.01 to 0.1 | ≥ 0.4 |
| C=CC(=O)Nc1cccc(Oc2nc(Nc3ccc(N4CCN(CCF)CC4)cc3)ncc2F)c1 [Compound I-12] | 0.01 to 0.1 | 0.01 to 0.1 | 0.2 to 0.4 |

The next lines start with the values.

| IC50 [1] [µM] | IC50 [2] [µM] | IC50 [3] [µM] | Structure (SMILES) |
| --- | --- | --- | --- |
| 0.01 to 0.1 | 0.01 to 0.1 | ≥ 0.4 | C=CC(=O)Nc1cccc(Oc2nc(Nc3ccc(N[C@@H]4CCN(CCF)C4)cc3)ncc2OC)c1 [Compound I-14, (R)—N-(3-(2-(4-(1-(2-fluoroethyl)pyrrolidin-3-ylamino)phenylamino)-5-methoxypyrimidin-4-yloxy)phenyl)acrylamide] |
| < 0.01 | ≤ 0.01 | ≥ 0.4 | C=CC(=O)Nc1cccc(Nc2nc(Nc3ccc(N[C@H]4CCN(CCF)C4)cc3)ncc2F)c1 [Compound I-15] |
| < 0.01 | ≤ 0.01 | ≥ 0.4 | C=CC(=O)Nc1cccc(Nc2nc(Nc3ccc(N[C@H]4CCN(CCF)C4)cc3)ncc2OC)c1 [Compound I-16, (S)—N-(3-(2-(4-(1-(2-fluoroethyl)pyrrolidin-3-ylamino)phenylamino)-5-methoxypyrimidin-4-ylamino)phenyl)acrylamide] |
| < 0.01 | ≤ 0.01 | ≥ 0.4 | C=CC(=O)Nc1cccc(Nc2nc(Nc3ccc(N[C@@H]4CCN(CCF)C4)cc3)ncc2OC)c1 [Compound I-17, (R)—N-(3-(2-(4-(1-(2-fluoroethyl)pyrrolidin-3-ylamino)phenylamino)-5-methoxypyrimidin-4-ylamino)phenyl)acrylamide] |
| < 0.01 | ≤ 0.01 | 0.2 to 0.4 | C=CC(=O)Nc1cccc(Nc2nc(Nc3ccc(N[C@@H]4CCN(CCF)C4)cc3)ncc2F)c1 [Compound I-18] |
